The text below walks through data of patent publication US5041653A, “Substituted benzamide radiosensitizers” (SRI International, priority 1990, dated 1991).

The structures appear in SMILES notation.

Broadly, the viability is a per cent measure of how many cells are alive, often set against a control.

One data set concerns EMT6 tumors. The data set is described as follows: In vivo assay for radiosensitization activity (EMT6 tumors in female BALB/c mice, survival of dissected and cultured tumor cells, compared with MIS). The arrangement: key to Radiosensitization (score 0 to 4 vs MIS): 0: No radiosensitization; 1: Minimal radiosensitization (some radiosensitization relative to controls but lowest survival>3×lowest survival with MIS); 2: Moderate radiosensitization (not good as MIS, but lowest surviving fraction<3×lowest surviving fraction with MIS); 3: Good radiosensitization (equal to MIS); 4: Excellent radiosensitization (superior to MIS). To be noted: for sensitizer enhancement ratio: at a 1-2 mM concentration, comparable to that for MIS; for Radiosensitization (score 0 to 4 vs MIS): EMT6 tumors, BALB/c mice, 5 mmole/kg or 2/3 of LD50 ip, 2,000 rad at 5 min to 2 hr after injection. On the procedure:
The compounds of the invention are tested in vivo for radiosensitization activity by the assay of Brown, J. M., Radiation Res (1975) 64:633-47, incorporated herein by reference. For this assay EMT6 tumors in female BALB/c mice weighing 20-25 g are used. These mice are bred under specific pathogen-free conditions and are 3-4 months old at the beginning of each experiment. The EMT6 tumor is grown intradermally in the flank from an inoculation of 2×10^5 tumor cells taken from the 2nd-8th in vitro passage of the tumor cells since removal from the previous in vivo tumor. Two tumors per mouse are implanted, and are used as subject tumors when they reach a volume of approximately […]. At this point the tumors contain approximately 20% hypoxic cells.
Test compounds are compared against MIS in this assay. The test compound is tested at a fixed injected dose of either 5 mmole/kg or 2/3 of the LD50 (whichever is lower), MIS is injected into controls at the same dose. Additional suitable controls of test compound-injected but non-irradiated and saline-injected and irradiated mice are also included. A fixed radiation dose of 2,000 rad is applied at variable intervals of 5 min to 2 hr between injection and irradiation. Typically, irradiation is applied at 5, 10, 15, 20, 30, 45, 60, 90, and 120 min following intraperitoneal administration of both drugs. By using these intervals, the results give an indication of both the optimum time to irradiate and of how the test compound sensitizes in relationship to MIS.
Irradiation of the EMT6 tumors is done by irradiating nonanesthetized tumor-bearing mice in a Plexiglas box. Irradiation conditions are 250 kVp X-rays, 15 mA, FSC 33 cm, added filtration of 0.35 mm Cu, half value layer 1.3 mm Cu, and a dose rate of 317 rad/min.
Radiosensitization activity is judged by survival rate of dissected and cultured tumor cells as follows: The tumor-bearing mice are killed immediately after irradiation, and tumors dissected from the skin, cut into several pieces, and made into a fine brei by high-speed chopping with a razor blade attached to a jigsaw. The brei is added to 30 ml of Hank's buffered salt solution (HBSS) containing 0.02% DNase, 0.05% promase, and 0.02% collagenase. The suspension is stirred for 30 min at 37° C., filtered, and centrifuged at 1,600 rmp for 10 min at 4° C. The cell pellet is resuspended in complete Waymouth's medium plus 121/2% horse serum plus 2-12% fetal calf serum (FCS) and an aliquot mixed with trypan blue and counted with the use of a hemacytometer. Suitable dilutions of this […] plated into 60- or 100-mm polystyrene petri dishes (Lux Scientific Corp) in 5 or 15 ml of medium. After incubation for 13 days, the colonies are fixed and stained, and those containing 50 cells or more are counted. The dilution yielding an average count of 25-100 colonies in a 60 mm dish is used in calculation of results.
The test compound is scored on the scale of 0 to 4 based on how it compares with MIS. The scoring system is:
1: Minimal radiosensitization (some radiosensitization relative to controls but lowest survival>3×lowest survival with MIS)
2: Moderate radiosensitization (not good as MIS, but lowest surviving fraction<3×lowest surviving fraction with MIS)
3: Good radiosensitization (equal to MIS)

Data set [1] can be described thus: Cytotoxicity test (% cell survival, hypoxic HA-1 cells). The data set is classed as cell-based, Chinese hamster. To be noted: chinese hamster, ha-1 cells, hypoxic, 10 mM test compound, 1 hr at 22° C., hypoxia (N2 containing 5% CO2). The protocol:
(§1) Cytotoxicity tests were also carried out on each of the compounds. The test procedure was as follows: Log-phase Chinese hamster ovary HA-1 cells were trypsinized (0.5% trypsin in Hank's buffered salt solution (HBSS)) and plated in 60 mm Permanox petri dishes in concentrations necessary to yield approximately 30 colonies after experimental treatment. The cells were allowed to attach overnight. Then the medium was removed from each dish and replaced with 2 ml of medium containing varying concentrations of the test compound. The petri dishes were then placed in nylon chamber fitted with gassing ports and, to achieve hypx=oxia, were gassed at room temperature with humidified N2 containing 5% CO2 for 1 hr at a rate of 1 l/min. The cells are then exposed to 10 mM of the test compound for 1 hr at 22° C. The % cell survival is read after such treatment.

The test system of data set [2] is Chinese hamster ovary HA-1 cells. The data set is described as above. The settings on record: 10 mM test compound, 1 hr at 22° C., hypoxia (N2 containing 5% CO2), 60 min, 10000 µM. In kind it is cell-based. The protocol:
as §1

For `CC(=O)OCCOc1cccc(C(N)=O)c1` [3-(2-acetoylethoxy)benzamide, 3-(2-Acetoxyethoxy)benzamide], the sensitizer enhancement ratio with EMT6 tumors worked out at 1.6.
Take `NC(=O)c1cccc(OCCO)c1` [3-(2-hydroxyethoxy)benzamide]: in the data set on EMT6 tumors, the “Radiosensitization (score 0 to 4 vs MIS)” value is reported as 3 and the sensitizer enhancement ratio was 1.6. The compound further returned a viability at 1 h, 10000 µM in data set [1] of 89%.
`NC(=O)c1cccc(O)c1` [3-hydroxybenzamide]: in the data set with EMT6 tumors, the “Radiosensitization (score 0 to 4 vs MIS)” value is reported as 3 and the sensitizer enhancement ratio came out at 1.6. The compound further gave a viability at 1 h, 10000 µM in data set [1] of 90%. The “Cytotoxicity % Cell Survival” value in data set [2] was 77%.
